For assay [1], the target named is Cyclin-dependent kinase 5/CDK5 activator 1 (Homo sapiens, UniProt Q00535). Put plainly: Inhibition of human Cyclin-dependent kinase 5-p35nck5a. In kind it is protein-complex assay.
The target of assay [2] is Cyclin-dependent kinase 1/cyclin B (Homo sapiens, UniProt P06493). As to the kind of experiment: Inhibition of human cyclin-dependent kinase 1-cyclin B. In kind it is protein-complex assay.
Assay [3] concerns the target Glycogen synthase kinase-3 beta (Homo sapiens, UniProt P49841).
Description: Inhibition of human glycogen synthase kinase-3 beta
The next assay is filed under the species Homo sapiens. Put plainly: Relative inhibition of human CDK-1 and GSK3-beta.

This is an account of results in ChEMBL document CHEMBL1146834, “1-Azakenpaullone is a selective inhibitor of glycogen synthase kinase-3 beta” (Bioorg Med Chem Lett, 2004).

Sequence of Cyclin-dependent kinase 5/CDK5 activator 1 (Q00535 whole entry): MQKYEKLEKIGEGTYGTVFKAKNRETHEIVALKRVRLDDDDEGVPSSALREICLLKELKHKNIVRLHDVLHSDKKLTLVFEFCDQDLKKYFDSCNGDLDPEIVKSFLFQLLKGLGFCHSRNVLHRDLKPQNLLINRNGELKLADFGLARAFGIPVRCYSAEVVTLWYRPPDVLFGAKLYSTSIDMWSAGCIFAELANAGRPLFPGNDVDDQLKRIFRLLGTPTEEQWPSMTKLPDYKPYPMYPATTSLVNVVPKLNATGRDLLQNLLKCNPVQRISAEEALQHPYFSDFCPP
Sequence of Cyclin-dependent kinase 5/CDK5 activator 1 (Q15078 whole entry, further chain): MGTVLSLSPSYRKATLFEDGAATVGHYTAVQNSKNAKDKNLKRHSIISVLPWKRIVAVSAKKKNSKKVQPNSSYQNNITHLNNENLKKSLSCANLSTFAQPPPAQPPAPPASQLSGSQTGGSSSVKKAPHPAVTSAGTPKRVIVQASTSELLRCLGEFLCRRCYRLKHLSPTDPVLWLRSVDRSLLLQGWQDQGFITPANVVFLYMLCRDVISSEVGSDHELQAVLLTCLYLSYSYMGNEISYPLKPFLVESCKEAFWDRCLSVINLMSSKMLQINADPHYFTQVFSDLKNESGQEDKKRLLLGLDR
Sequence of Glycogen synthase kinase-3 beta (P49841 whole entry): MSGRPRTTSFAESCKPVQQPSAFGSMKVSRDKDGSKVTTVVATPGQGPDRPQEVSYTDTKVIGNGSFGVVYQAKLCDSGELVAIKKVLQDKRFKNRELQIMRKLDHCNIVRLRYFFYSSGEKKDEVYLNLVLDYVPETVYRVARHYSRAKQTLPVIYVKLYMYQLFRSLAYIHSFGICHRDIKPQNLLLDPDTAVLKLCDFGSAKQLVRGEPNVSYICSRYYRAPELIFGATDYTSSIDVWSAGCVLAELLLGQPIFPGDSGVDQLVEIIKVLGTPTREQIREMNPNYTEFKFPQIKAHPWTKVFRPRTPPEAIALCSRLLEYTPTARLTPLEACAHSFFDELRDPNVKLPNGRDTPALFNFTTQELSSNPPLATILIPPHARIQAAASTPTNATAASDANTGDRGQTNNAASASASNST

By IC50 is commonly meant the concentration needed to halve the response being measured. Lower therefore signals greater potency. Take `O=C1Cc2c([nH]c3ccc(Br)cc23)-c2cccnc2N1`: the IC50 in assay [1] is 12 µM; in assay [2] it was 8.4 µM; in assay [3], 6 µM. In the assay listed under Homo sapiens, this compound registered a Selectivity index of 1.4.

Regarding `CC(C)c1c(-c2ccc(Cl)cc2)[nH]c2nccnc12`, the Selectivity index in the assay listed under Homo sapiens came out at 1.1.

For `NC1=NC(=O)/C(=C2\CCNC(=O)c3[nH]c(Br)cc32)N1` [HYMENIALDISINE], the IC50 in assay [1] is 0.028 µM; in assay [2] it was 0.022 µM.

Compound `O=C1Cc2c([nH]c3ccc(Br)cc23)-c2ncccc2N1` [AZAKENPAULLONE] showed an IC50 in assay [2] of 2 µM.

In the case of `O=Nc1c(-c2c(O)[nH]c3ccc(I)cc23)[nH]c2ccccc12`, the IC50 in assay [1] stood at 0.02 µM; in assay [2], 0.025 µM.
